Measured values reported in PubChem BioAssay AID212 (DTP/NCI, 2004).
Values joined by “and” are separate entries in the source; they are usually repeats but may differ in a detail not shown here. Equal entries are not always repeated. Inconclusive results are not listed.

Test system: BDF1 mice, colon carcinoma 38 sc, T/C %
Experiment: NCI In Vivo Anticancer Drug Screen. Data for tumor model Colon Carcinoma 38 (subcutaneous) in B6D2F1 (BDF1) mice
Settings: endpoint: median tumor weight (est.), higher = larger tumour
Method in brief: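 T/C readout: treated group (T) measurement over vehicle control group (C) measurement. Endpoint is survival or tumor size in mice bearing a transplanted tumor.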

[1] = dose: 50.0 mg/kg/injection, schedule: Q07DX002 (ip), vehicle: saline with Tween-80
[2] = dose: 400.0 mg/kg/injection, schedule: Q07DX002 (ip), vehicle: saline with Tween-80

CC[C@]1(O)C[C@H](OC2CC(N(C)C)C(OC3CC(O)C(O)C(C)O3)C(C)O2)c2c(cc3c(c2O)C(=O)c2c(O)ccc(O)c2C3=O)[C@H]1C(=O)OC (stereo partly drawn)
T/C (dose: 0.38 mg/kg/injection, schedule: Q07DX003 (ip), vehicle: Klucel (hydroxypropylcellulose) (HPC)): 109 % of control | T/C (dose: 0.5 mg/kg/injection, schedule: Q07DX003 (ip), vehicle: Klucel (hydroxypropylcellulose) (HPC)): 45 % of control | T/C (dose: 0.75 mg/kg/injection, schedule: Q07DX003 (ip), vehicle: Klucel (hydroxypropylcellulose) (HPC)): 62 % of control | T/C (dose: 1.0 mg/kg/injection, schedule: Q07DX003 (ip), vehicle: Klucel (hydroxypropylcellulose) (HPC)): 25 % of control | T/C (dose: 1.5 mg/kg/injection, schedule: Q07DX003 (ip), vehicle: Klucel (hydroxypropylcellulose) (HPC)): 66 % of control | T/C (dose: 3.0 mg/kg/injection, schedule: Q07DX003 (ip), vehicle: Klucel (hydroxypropylcellulose) (HPC)): 73 % of control | T/C (dose: 4.0 mg/kg/injection, schedule: Q07DX003 (ip), vehicle: Klucel (hydroxypropylcellulose) (HPC)): 35 % of control | T/C (dose: 6.0 mg/kg/injection, schedule: Q07DX003 (ip), vehicle: Klucel (hydroxypropylcellulose) (HPC)): 79 % of control | T/C (dose: 8.0 mg/kg/injection, schedule: Q07DX003 (ip), vehicle: Klucel (hydroxypropylcellulose) (HPC)): 21 % of control

Cc1cc(O)c2c(c1O)C(=O)c1cccc(O)c1C2=O
T/C (dose: 0.18 mg/kg/injection, schedule: Q07DX002 (ip), vehicle: Klucel (hydroxypropylcellulose) (HPC)): 86 % of control | T/C (dose: 0.37 mg/kg/injection, schedule: Q07DX002 (ip), vehicle: Klucel (hydroxypropylcellulose) (HPC)): 60 % of control | T/C (dose: 0.75 mg/kg/injection, schedule: Q07DX002 (ip), vehicle: Klucel (hydroxypropylcellulose) (HPC)): 59 % of control | T/C (dose: 1.5 mg/kg/injection, schedule: Q07DX002 (ip), vehicle: Klucel (hydroxypropylcellulose) (HPC)): 110 % of control

CO[C@H](C(=O)[C@@H](O)[C@@H](C)O)[C@@H]1Cc2cc3cc(OC4CC(OC5CC(O)C(O)C(C)O5)C(O)C(C)O4)c(C)c(O)c3c(O)c2C(=O)[C@H]1OC1CC(OC2CC(OC3CC(C)(O)C(O)C(C)O3)C(O)C(C)O2)C(O)C(C)O1 (stereo partly drawn)
T/C (dose: 0.06 mg/kg/injection, schedule: Q07DX002 (ip), vehicle: saline): 114 % of control | T/C (dose: 0.12 mg/kg/injection, schedule: Q07DX002 (ip), vehicle: saline): 99 % of control | T/C (dose: 0.25 mg/kg/injection, schedule: Q07DX002 (ip), vehicle: saline): 161 % of control | T/C (dose: 0.25 mg/kg/injection, schedule: Q07DX003 (ip), vehicle: saline): 75 % of control | T/C (dose: 0.5 mg/kg/injection, schedule: Q07DX003 (ip), vehicle: saline): 65 % of control | T/C (dose: 1.0 mg/kg/injection, schedule: Q07DX003 (ip), vehicle: saline): 49 % of control | T/C (dose: 2.0 mg/kg/injection, schedule: Q07DX003 (ip), vehicle: saline): 37 % of control

O=c1[nH]cnc2c1ccn2C1OC(CO)C(O)C1O (stereo not drawn)
T/C (dose: 1.5 mg/kg/injection, schedule: Q07DX002 (ip), vehicle: saline): 88 % of control | T/C (dose: 3.0 mg/kg/injection, schedule: Q07DX002 (ip), vehicle: saline): 118 % of control | T/C (dose: 6.0 mg/kg/injection, schedule: Q07DX002 (ip), vehicle: saline): 100 % of control | T/C (dose: 12.0 mg/kg/injection, schedule: Q07DX002 (ip), vehicle: saline): 86 % of control | T/C (dose: 24.0 mg/kg/injection, schedule: Q07DX002 (ip), vehicle: saline): 63 % of control

CCCCn1cnc2c(=S)nc[nH]c21
T/C [1]: 87 % of control and 96 % of control | T/C [2]: 17 % of control and 21 % of control

CCCCCc1cc(/C=C2/N=C(c3ccc[nH]3)C=C2OC)[nH]c1C
T/C (dose: 0.5 mg/kg/injection, schedule: Q07DX002 (ip), vehicle: saline with Tween-80): 94 % of control | T/C (dose: 2.0 mg/kg/injection, schedule: Q07DX002 (ip), vehicle: saline with Tween-80): 163 % of control | T/C (dose: 4.0 mg/kg/injection, schedule: Q07DX002 (ip), vehicle: saline with Tween-80): 106 % of control | T/C (dose: 8.0 mg/kg/injection, schedule: Q07DX002 (ip), vehicle: saline with Tween-80): 120 % of control | T/C (dose: 16.0 mg/kg/injection, schedule: Q07DX002 (ip), vehicle: saline with Tween-80): 108 % of control

COc1cc(C2c3cc4c(cc3C(O)C(CO)C2CO)OCO4)cc(OC)c1OC (stereo not drawn)
T/C (dose: 12.5 mg/kg/injection, schedule: Q07DX002 (ip), vehicle: saline with Tween-80): 81 % of control | T/C (dose: 25.0 mg/kg/injection, schedule: Q07DX002 (ip), vehicle: saline with Tween-80): 155 % of control | T/C [1]: 180 % of control | T/C (dose: 100.0 mg/kg/injection, schedule: Q07DX002 (ip), vehicle: saline with Tween-80): 203 % of control | T/C (dose: 200.0 mg/kg/injection, schedule: Q07DX002 (ip), vehicle: saline with Tween-80): 160 % of control | T/C [2]: 174 % of control
